Experimental data: US8399436B2, “N-pyrazolyl carboxamides as CRAC channel inhibitors” (Glaxo Group Limited, priority 2009, dated 2013)
Counter-ions that a name gives are not always drawn.

Target: ICRAC current (calcium release activated calcium channel) (Homo sapiens, UniProt Q96D31)
Assay type: cell-based
Settings: Jurkat E6-1 cells; at a final assay concentration of 15 μM
Experimental: This ICRAC assay uses the SERCA inhibitor thapsigargin to produce calcium depletion and activate an ICRAC current. […] Changes in intracellular calcium levels are determined by the inclusion of the calcium sensitive fluorescent dye Fluo-4 and the use of the FLIPR detection system. Inhibitors of ICRAC would be expected to decrease the calcium influx upon calcium add-back, thus reducing fluorescent signal.
Jurkat E6-1 is an established immortalised T lymphocyte cell line previously shown to express a functional ICRAC current. Jurkat cells grow in suspension, are cultured in DMEM+10% FBS, maintained in T175 flasks at 37° C./5% CO2, and are subcultured twice a week with either 1:10-1:20 splits. 1 confluent T175 yields 100 ml of approximately 2×10^6 cells/ml.
Loading buffer contains; NaCl 145 mM, KCl 2.5 mM, HEPES 10 mM, Glucose 10 mM, MgCl2 1.2 mM, made up with water, then pH adjusted to 7.4 using NaOH 1 M. Finally Fluo-4AM & brilliant black are added to give a final assay concentration of 2 μM and 250 μM respectively.
The required seeding density for a 384 plate is 20,000 cells per well. […] Plates are then transferred to the FLIPR which initially measures baseline fluorescence, followed by any increase in fluorescence evoked by the online addition of a 6 mM (1.2 mM FAC) calcium solution. […]

Sequence of ICRAC current (calcium release activated calcium channel) (Q96D31 whole entry): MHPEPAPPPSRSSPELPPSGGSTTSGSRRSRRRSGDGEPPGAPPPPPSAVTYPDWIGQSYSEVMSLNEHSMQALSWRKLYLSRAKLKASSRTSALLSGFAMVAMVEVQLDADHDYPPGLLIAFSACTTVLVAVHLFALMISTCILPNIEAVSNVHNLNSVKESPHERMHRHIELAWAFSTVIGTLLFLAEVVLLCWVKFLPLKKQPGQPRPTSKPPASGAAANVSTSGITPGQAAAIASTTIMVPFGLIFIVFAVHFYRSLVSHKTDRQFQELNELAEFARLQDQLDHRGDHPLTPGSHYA
Sequence of ICRAC current (calcium release activated calcium channel) (Q13586 23-685, further chain): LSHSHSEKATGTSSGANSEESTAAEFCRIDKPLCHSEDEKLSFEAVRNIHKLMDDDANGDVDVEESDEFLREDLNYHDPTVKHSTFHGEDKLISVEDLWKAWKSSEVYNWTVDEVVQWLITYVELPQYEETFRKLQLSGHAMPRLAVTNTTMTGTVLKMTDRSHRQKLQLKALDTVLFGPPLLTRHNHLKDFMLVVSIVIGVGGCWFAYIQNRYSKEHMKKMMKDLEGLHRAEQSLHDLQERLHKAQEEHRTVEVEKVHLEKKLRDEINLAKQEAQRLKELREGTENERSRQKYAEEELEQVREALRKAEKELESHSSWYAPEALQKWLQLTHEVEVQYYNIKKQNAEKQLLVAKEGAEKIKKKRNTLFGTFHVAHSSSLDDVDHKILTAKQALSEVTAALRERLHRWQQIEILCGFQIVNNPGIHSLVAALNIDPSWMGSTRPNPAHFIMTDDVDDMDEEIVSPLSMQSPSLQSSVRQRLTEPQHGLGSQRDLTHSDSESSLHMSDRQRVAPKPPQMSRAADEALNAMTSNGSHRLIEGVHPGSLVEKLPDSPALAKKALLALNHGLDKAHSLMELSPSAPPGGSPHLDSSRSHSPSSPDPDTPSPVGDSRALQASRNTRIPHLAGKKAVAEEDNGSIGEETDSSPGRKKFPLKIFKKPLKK

SMILES	pIC50
O=C(Nc1ccn(Cc2ccc(OP(=O)([O-])[O-])cc2C(F)(F)F)n1)c1c(F)cccc1F.[Na+].[Na+] [Example 186, 4-[(3-{[(2,6-Difluorophenyl)carbonyl]amino}-1H-pyrazol-1-yl)methyl]-3-(trifluoromethyl)phenyl dihydrogen phosphate disodium salt]	4.9
O=C(c1c(F)cccc1F)N(COP(=O)(O)O)c1ccn(Cc2c(F)cccc2C(F)(F)F)n1 [Example 187, [[(2,6-Difluorophenyl)carbonyl](1-{[2-fluoro-6-(trifluoromethyl)phenyl]methyl}-1H-pyrazol-3-yl)amino]methyl dihydrogen phosphate disodium salt]	< 4.8
